Experimental data as given in patent publication US11090271B2, “Soft gelatin capsules containing hydroxypropyl beta cyclodextrin with high stability” (ALTERGON S.A., priority 2017, dated 2021).
Blank lines part the entries; values can stand above or below the molecule they belong to.

Experiments:
[1] = Water solubility of the active ingredient at room temperature; format: physicochemical; details: room temperature (20° C.)
Experimental: In a further embodiment, the active ingredient is a water-soluble one, i.e. it has a water solubility at room temperature (20° C.) higher than 0.1% w/v, preferably higher than 0.5% w/v, or more preferably higher than 1% w/v. […] According to this embodiment, the present invention is characterized as a soft gelatin capsule having inside a fill comprising a water-soluble active ingredient containing nitrogen, wherein the wall of said capsule comprises hydroxypropyl beta cyclodextrin (HPBCD) in an amount being: (a) less than 10% by weight on the weight of the wall and (b) sub-stoichiometric to form an inclusion complex with the active ingredient present in the fill.

[2] = Storage stability of aqueous diclofenac solutions complexed with HPBCD (colour); format: physicochemical
Experimental: Occasionally the complexation in cyclodextrin has been carried out to protect the active ingredients from degradation phenomena, however with modest results (International Journal of Photoenergy, 3, 2001, 205-211). […] Finally, storage stability tests were carried out with various aqueous solutions of diclofenac sodium entirely complexed with hydroxypropyl beta ciclodextrin (HPBCD), having the following composition: diclofenac sodium 40.6 mg; HPBCD 177.6 mg; purified water 782.4 mg.

water solubility [1]: about 1.9 % w/v
Molecule: diclofenac epolamine [DHEP]

colour of the solution ([2]; aqueous solution complexed in HPBCD, storage at 25° C.±2° C., 60±5% R.H.): amber colour
Molecule: O=C(O)Cc1ccccc1Nc1c(Cl)cccc1Cl [diclofenac]

colour of the solution ([2]; aqueous solution entirely complexed with HPBCD, 18 months at 30° C. and 65% R.H.): evident amber colour
Molecule: O=C(O)Cc1ccccc1Nc1c(Cl)cccc1Cl [diclofenac sodium]
